The structures appear in SMILES notation. Where only a bound is given, the exact number is not on record here.

One assay concerns the target selected RNA motifs. In words: In solution fluorescence-based binding affinity measurement. As to conditions: read-out: Average Kd of Selected RNA Binders. The procedure:
Bound RNA motifs for each compound were harvested from the array surface, amplified, and identified by using high throughput sequencing (RNA-seq). Highly abundant RNAs in the sequencing data were then subjected to binding measurements. Typically, those RNAs that were highly enriched bound to the small molecules with affinities (Kds) that ranged from 1 to 10 μM (FIG. 2 and Table 1) while binding to the starting libraries was not saturable. These affinities are promising for binding RNA, as it has been difficult to acquire low micromolar affinity with compounds of this low molecular weight. In fact, RNAs that have undergone Darwinian evolution to bind small molecules, namely riboswitches, often bind their cognate ligand at […] concentrations;^30-33 bioactive compounds that mimic riboswitch ligands bind with similar affinities.^30,34
(§1) Binding Affinity Measurements: An in solution, fluorescence-based assay was used to determine binding affinities by monitoring the change in fluorescence intensity of 1-FL (or 2-FL/3-FL/4-FL) as a function of RNA concentration as described previously.^18 Briefly, the RNA of interest was folded in 1× Folding Buffer (8 mM Na2HPO4, pH 7.0, 185 mM NaCl and 1 mM EDTA) by heating at 60° C. for 5 min followed by slowly cooling to room temperature on the bench top. Then, the FL-conjugated compound was added into the RNA solution to a final concentration of 100 nM. Serial dilutions were then completed using 1× Folding Buffer supplemented with 100 nM FL-conjugated compound. The solutions were incubated at room temperature for 30 min and then transferred to a well of a black 384-well plate. Fluorescence intensity was measured using a Bio-Tek FL×800 plate reader with an excitation wavelength of 485/20 nm and an emission wavelength of 528/20 nm. The change in fluorescence intensity as a function of the concentration of RNA was fit to equation 3:^9 I=I0+0.5 Δε{([FL]0+[RNA]0 +Kd)−(([FL]0+[RNA]0+Kd)^2−4[FL]0[RNA]0)^1/2} (3) where I is the observed fluorescence intensity; I0 is the fluorescence intensity in the absence of RNA; Δε is the difference between the fluorescence intensity in the absence of RNA and in the presence of infinite RNA concentration; [FL]0 is the concentration of compound; [RNA]0 is the concentration of the selected RNA; and Kd is the dissociation constant.
Usually Kd stands for the free concentration of one partner at which half of the binding sites on the other are occupied at equilibrium, for simple one-to-one binding. Regarding `Cc1cc(-c2nc3ccc(-c4ccc(N5CCN(C)CC5)cc4)cc3[nH]2)cc(C)c1OCCCC(=O)NCCCN=[N+]=[N-]` [Compound 2], the Kd worked out at 7 ± 5 µM.

In the case of `CN1CCN(c2ccc(-c3ccc4nc(-c5ccc(OCCCC(=O)NCCCN=[N+]=[N-])cc5)[nH]c4c3)cc2)CC1` [Compound 1], the equilibrium dissociation constant (Kd) came to 16 ± 9 µM.

On to `CC(C)c1cc(-c2nc3ccc(-c4ccc(N5CCN(C)CC5)cc4)cc3[nH]2)cc(C(C)C)c1OCCCC(=O)NCCCN=[N+]=[N-]` [Compound 3], for which the Kd is 8 ± 4 µM.

A further assay addresses AT-rich DNA hairpin. The description is as above.
Details: not given
Text: It has been difficult to identify compounds that are heterocyclic in nature that selectively recognize RNA over DNA.^5 Thus, to further gain insight into the selectivity of our RNA motif-small molecule interactions, we compared the measured affinities for selected RNA motifs to the affinities of the ligands for an AT-rich DNA hairpin, a common target of small molecules similar to those shown in FIG. 1. […] This alteration reduces DNA affinity because key stacking and hydrogen bonding interactions are not possible. […] Thus, the interactions selected via 2DCS are RNA-selective.
as §1
For `Cc1cc(-c2nc3ccc(-c4ccc(N5CCN(C)CC5)cc4)cc3[nH]2)cc(C)c1OCCCC(=O)NCCCN=[N+]=[N-]` [Compound 2], the Kd was > 100 µM.

Turning to `CN1CCN(c2ccc(-c3ccc4nc(-c5ccc(OCCCC(=O)NCCCN=[N+]=[N-])cc5)[nH]c4c3)cc2)CC1` [Compound 1], the Kd is > 100 µM.

On to `CC(C)c1cc(-c2nc3ccc(-c4ccc(N5CCN(C)CC5)cc4)cc3[nH]2)cc(C(C)C)c1OCCCC(=O)NCCCN=[N+]=[N-]` [Compound 3], for which the Kd is > 100 µM.

For the origin of these results see patent US12527788B2, “Defining RNA-small molecule affinity landscapes enables design of a small molecule inhibitor of an oncogenic non-coding RNA” (University of Florida Research Foundation, Incorporated, priority 2017, dated 2026).
